Results from patent US20130116225A1, “METHOD FOR TREATING HEMATOLOGICAL CANCERS” (NIIKI PHARMA INC., priority 2010, published 2013).
“Also recorded” adds a separate entry of the source. Where two headings read alike, the source gives them in different places.

Experiments:
[1] = test system: NCI-H929 multiple myeloma cells; assay: Anti-proliferation assay, Cell Titer-Glo (Example 3); type: cell-based, human
Description: (§1) To determine the growth inhibitory activity of tris(8-quinolinolato)gallium(III) and lenalidomide, a representative panel of human multiple myeloma tumor cell lines (OPM-2, RPMI-8226, NCI-H929 and ARH-77) were tested with the compounds in anti-proliferation assays. Specifically, the human tumor cells were placed in a 96-well microculture plate at the appropriate density for 96 hours of total growth time. After 24 hours of incubation in a humidified incubator at 37° C. with 5% CO2 and 95% air, serially diluted test agents in growth medium were added to each well. After 96 total hours of culture in a CO2 incubator, the plates were processed with Cell Titer-Glo (Promega #G7571) according to manufacturer's instructions. Luminescence was detected using a Tecan GENios microplate reader. Percent inhibition of cell growth was calculated relative to untreated control wells. All tests were performed in duplicate at each concentration level.
(§2) The IC50 value for the test agents was estimated using Prism 3.03 by curve-fitting the data using the following four parameter-logistic equation: […]
(§3) where Top is the maximal % of control absorbance, Bottom is the minimal % of control absorbance at the highest agent concentration, Y is the % of control absorbance, X is the agent concentration, IC50 is the concentration of agent that inhibits cell growth by 50% compared to the control cells, and n is the slope of the curve.

[2] = test system: ARH-77 multiple myeloma cells; assay: as above; type: cell-based, human; conditions: 96 hours total culture
Description: as §1, §2, §3

[3] = test system: RPMI-8226 multiple myeloma cells; assay: as above; type: cell-based, human; conditions: 96 hours total culture
Description: as §1, §2, §3

[4] = test system: OPM-2 multiple myeloma cells; assay: as above; type: cell-based, human; conditions: 96 hours total culture
Description: as §1, §2, §3

BJAB lymphoma cells [5] = assay: LDH release cytotoxicity assay; type: cell-based, human; conditions: 1 hour exposure
Description: Cytotoxicity of the different drugs was measured by the release of lactate dehydrogenase (LDH). After incubation with different concentrations of tris(8-quinolinolato)gallium(III) for 1 hour, LDH activity released by BJAB cells was measured in the cell culture supernatants using the Cytotoxicity Detection Kit from Boehringer Mannheim® (Mannheim, Germany). The supernatants were centrifuged at 1500 rpm for 5 min. 20 μl of cell-free supernatants were diluted with 80 μl phosphate-buffered saline (PBS), and 100 μl reaction mixture containing 2-[4-iodophenyl]-3-[4-nitrophenyl]-5-phenyltetrazolium chloride (INT), sodium lactate, […] and diaphorase were added. Then, time-dependent formation of the reaction product was quantified photometrically at 490 nm. The maximum amount of LDH activity released by the cells was determined after lysis of the cells using 0.1% Triton X-100 in culture medium and set to represent 100% cell death.
Unspecific cytotoxic effects of the agent such as necrosis could be excluded by determination of extra cellular lactate dehydrogenase (LDH) via ELISA detection.

[6] = test system: Harakiri gene expression in BJAB cells; assay: Real-time PCR apoptosis gene expression array; type: cell-based, human; conditions: 2.5 μM, 8 hours
Description: (§4) For the analysis of the differential expression of multiple genes involved in the different apoptosis pathways, apoptosis-specific RT2 profiler (polymerase chain reaction) PCR expression arrays (SuperArray PAHS-012; SABiosciences Corporation, Frederick, Md., USA) was used according to the manufacturer's instructions. Total RNA was extracted from BJAB cells treated with […] for 8 hours, and RNAs were treated with DNase I (2 U/μl) to eliminate possible genomic DNA contamination. Total RNA (700 ng/μl) was then used as a template for the synthesis of a cDNA probe and subjected to quantitative real-time PCR SuperArray analysis according to the manufacturer's instructions using a LightCycler480 (Roche Diagnostics). The means of nine housekeeping genes were used to normalize the hybridization signals. Results were analyzed using SuperAnay Analyser Software, and the data are given in-fold expression of the respective genes as compared with control cells incubated in vehicle-containing medium for 8 hours.
(§5) Changes of transcript levels of apoptosis relevant genes were analyzed in RNA isolated from BJAB cells after 8 hours of incubation with 2.5 μM tris(8-quinolinolato)gallium(III). […] Harakiri (Hrk) is a pro-apoptotic Bcl-2 homology domain 3-only protein of the Bcl-2 family.

[7] = test system: caspase-5 gene expression in BJAB cells; assay: Real-time PCR apoptosis gene expression array; type: cell-based, human; conditions: 2.5 μM, 8 hours
Description: as §4, §5

[8] = test system: CCRF-CEM, Jurkat, MOLT-4 cell lines; conditions: read-out: IC50, inhibiting cell growth and proliferation; all cell lines of Table 1; 48 hours with drug; XTT
Description: Cells have been expanded under appropriate culture conditions until sufficient cells were available for the assay. Adherent cells were trypsinated. Cell count and viability of the cells were determined (Casy T T, Schärfe Systems). The Cells (viability >95%) were seeded in 100 μl of cell culture medium at the appropriate density of living cells into 96-well tissue culture plates. The cells were incubated at 37° C. and 5% CO2 for 24 hours.
For a negative control, 100 μl of cell culture medium were added to three wells (100% value). For a positive control all cells were deadened with phenol (0% value). The cells were incubated with the drug for further 48 hours at 37° C. and 5% CO2.
XTT assays were performed on the above treated cells. XTT is a tetrazolium salt that can be cleaved by “succinate-tetrazolium reductase”, a mitochondrial redox-system that is exclusively active in living cells. The cleavage results in a soluble formazan salt that can be quantified by colorimetric measuring at 450 nm. The intensity of the orange color is directly linked to the number of living, metabolically active cells. A concentrated stock solution (1 mg/ml PBS) of XTT (Sigma-Aldrich) was prepared, aliquoted, filtered and stored at −20° C. […] The developed formazan was quantified in an absorbance micro plate reader (Genios, Tecan) at a measurement wavelength of 450 nm and a reference wavelength of 690 nm.

[9] = test system: vincristine-resistant Nalm-6 cells; conditions: vincristine-resistant Nalm-6, P-gp overexpressing; 72 hours
Description: (§7) After 72 hours of incubation with different concentrations of the agent, DNA fragmentation was measured via FACS scan analysis. […] Values of DNA fragmentation are given as percentages of cells with hypodiploid DNA±s.d. (n=3);
(§8) Apoptotic cell death was determined by a modified cell cycle-analysis, which detects. DNA fragmentation on the single cell level. […] After a 72-hour incubation period at a temperature of 37° C., cells were collected by centrifugation at 1500 rpm for 5 min, washed with PBS at 4° C. and fixed in PBS/2% (v/v) formaldehyde on ice for 30 minutes. After fixation, cells were pelleted, incubated with ethanol/PBS (2:1, v/v) for 15 minutes, pelleted and resuspended in PBS containing 40 μg/ml RNase. RNA was digested for 30 minutes at a temperature of 37° C., after which the cells were pelleted again and finally resuspended in PBS containing 50 μg/ml propidium iodide. Nuclear DNA fragmentation was quantified by flow cytometric determination of hypodiploid DNA. Data were collected and analyzed using a FACScan instrument (Becton Dickinson, Heidelberg, Germany) equipped with CELL Quest software. Data are given in percent hypodiploidy (subG1), which reflects the number of apoptotic cells.

[10] = test system: DoHH2 Human EBV-negative B Cell Lymphoma cells; assay: Anti-proliferation assay, Cell Titer-Glo (Example 6); type: cell-based; conditions: 96 total hours of culture
Description: (§6) To determine the antiproliferative activity of tris(8-quinolinolato)gallium(III) in human lymphoma tumor cell lines, anti-proliferation assays were conducted in the DoHH2. Granta 519, and WSU-DLCL2 cell lines. The DoHH2 Human EBV-negative B Cell Lymphoma cells were seeded with 5,000 cells/well and grown in RPMI1640 medium containing 20% FBS, and 2 mM L-Glutamine. The Granta 519 Human Mantle Cell Lymphoma cells were seeded with 10,000 cells/well and grown in DMEM medium containing 10% FBS, and 2 mM L-Glutamine. The WSU-DLCL2 Human B Cell Lymphoma cells were seeded with 5,000 cells/well and grown in RPMI1640 medium containing 10% FBS, and 2 mM L-Glutamine. Specifically, the human tumor cells were placed in a 96-well microculture plate at the appropriate density for 96 hours of total growth time. After 24 hours of incubation in a humidified incubator at 37° C. with 5% CO2 and 95% air, serially diluted test agents in growth medium were added to each well. After 96 total hours of culture in a CO2 incubator, the plates were processed with Cell Titer-Glo (Promega #G7571) according to manufacturer's instructions. Luminescence was detected using a Tecan GENios microplate reader. Percent inhibition of cell growth was calculated relative to untreated control wells. All tests were performed in duplicate at each concentration level. The IC50 value for the test agents was estimated using Prism 3.03 by curve-fitting the data using the four parameter-logistic equation as described in Example 4 above. […] It is known that WSU-DLCL2 cells are resistant to the CHOP (cyclophosphamide, adriamycin, vincristine, prednisone) regimen. See Levi et al., Cancer Chemother. Pharmacal., (published online Aug. 31, 2010). Thus, tris(8-quinolinolato)gallium(III) is also active against lymphoma cells resistant to drugs. such as cyclophosphamide, adriamycin, vincristine, prednisone.

[11] = test system: Granta 519 Human Mantle Cell Lymphoma cells; assay: as above; type: cell-based; conditions: 96 total hours of culture
Description: as §6

[12] = test system: WSU-DLCL2 Human B Cell Lymphoma cells; assay: as above; type: cell-based; conditions: 96 total hours of culture
Description: as §6

MV4-11 leukemia cells = assay: Cell growth inhibition, Cell Titer-Glo (Example 4); type: cell-based, human; conditions: 96 total hours of culture
Description: The human leukemia cell line MV4-11 cells were placed in a 96-well microculture plate (Costar white, flat bottom #3917) in a total volume of 90 μL/well. After 24 hours of incubation in a humidified incubator at 37° C. with 5% CO2 and 95% air, 10 μL of 10×, serially diluted tris(8-quinolinolato)gallium(III) in growth medium was added to each well. After 96 total hours of culture in a CO2 incubator, the plated cells and Cell Titer-Glo (Promega #G7571) reagents were brought to room temperature to equilibrate for 30 minutes. 100 μL of Cell Titer-Glo® reagent was added to each well. The plate was shaken for 2 minutes and then left to equilibrate for 10 minutes before reading luminescence on the Tecan GENios microplate reader. Percent inhibition of cell growth was calculated relative to untreated control wells. All tests were performed in duplicate at each concentration level. The IC50 value for the test agent was estimated using Prism 3.03 by curve-fitting the data using the following four parameter-logistic equation: […]
as §3, with “minimal” for “minimal %”, “curve. […]” for “curve.”

[13] = test system: daunorubicin-resistant Nalm-6 cells; conditions: daunorubicin-resistant Nalm-6, P-gp overexpressing; 72 hours
Description: as §7, §8

BJAB lymphoma cells [14] = assay: Cell viability and proliferation, CASY Cell Counter; type: cell-based, human
Description: FIG. 1 is a graph showing cell viability and inhibition of proliferation of BJAB lymphoma cells by tris(8-quinolinolato)gallium(III), which inhibits proliferation in a dose-dependent manner up to 100% (exposure time 24 hours);
Cell viability was determined by using the CASY® Cell Counter+Analyzer System of Innovatis (Bielefeld, Germany). Settings were specifically defined for the requirements of the cells used. With this system the cell concentration can be analyzed simultaneously in three different size ranges: thus cell debris, dead cells, and viable cells could be determined in one measurement. Cells were seeded at a density of 1×10^5cells/ml and treated with different concentrations of […]; non-treated cells served as controls. After a 24-hour incubation period, cells were re-suspended completely, and 100 μl of each well were diluted in 10 ml CASYton (ready-to-use isotonic saline solution) for immediate automated counting.
In order to assess the antiproliferative effects of tris(8-quinolinolato)gallium(III), BJAB lymphoma cells were exposed to various concentrations of the drug for 24 hours. The determination of cell viability and cell count were carried out with a CASY® Cell Counter and Analyzer System.

[15] = test system: caspase-9 and caspase-3 in BJAB cells; assay: Western blot analysis of caspase activation; type: cell-based, human; conditions: 24 hours
Description: FIG. 6 includes chromatograms showing Western blot analysis of tris(8-quinolinolato)gallium(III)-treated BJAB cells. Epirubicin was used as a positive control. After incubation for 24 hours the protein extracts were fractionated on a denaturating 4-20% polyacrylamide gel, transferred to nitrocellulose and detected with anti-caspase-31-9 and anti-β-actin antibody. A: caspase-9 (procaspase: 47 kDa; cleavage product: 37 kDa), B: caspase-3 (procaspase: 32 kDa; cleavage products: 18 and 17 kDa), C: β-actin (42 kDa);
For Western blot analysis, cytosolic protein ([…]) was loaded in each lane and was separated by sodium dodecylsulfate (SDS) PAGE. After blotting of proteins onto nitrocellulose membranes (Schleicher and Schuell, Dassel, Germany), the membrane was blocked for 1 h in PBST (PBS containing 0.05% Tween-20) containing 3% nonfat dry milk and incubated with primary antibody overnight at 4° C. After the membrane had been washed three times in PBST, secondary antibody in PBST was applied for 1 h. […]
Further evidence for apoptosis via the intrinsic pathway was obtained by investigating the consecutive activation of caspase-9 and -3 by Western blot analysis. […] The activation of both caspases by proteolytic cleavage was determined after treatment of BJAB cells with tris(8-quinolinolato)gallium(III). […]

BJAB lymphoma cells [16] = assay: Apoptosis induction, flow cytometric hypodiploid DNA (DNA fragmentation); type: cell-based, human; conditions: 72 hours
Description: FIG. 3 is a diagram showing apoptosis induction measured via flow cytometric determination of hypodiploid DNA in BJAB cells after treatment with tris(8-quinolinolato)gallium(III) for 72 hours. Data are given in % hypodiploidy (subG1)±ESD (n=3), which is consistent with the number of apoptotic cells;
DNA fragmentation on the single cell level.
To quantify the induction of apoptosis triggered by tris(8-quinolinolato)gallium(III) we determined the DNA fragmentation (hypodiploidy) as a characteristic effect of apoptotic cell death. The procedure was conducted by flow cytometric measurement of hypodiploid DNA after incubating lymphoma cells (BJAB) for 72 hours with the agent. Extensive apoptosis induction could be reached even in low concentrations of the agent (AC50: ˜1 μM), seen in FIG. 3.

Nc1cccc2c1CN(C1CCC(=O)NC1=O)C2=O (stereo not drawn) [Lenalidomide, lenalidomide, reference compound]
IC50 ([1]; Homo sapiens, NCI-H929, 96 hours total culture): 5280 nM | IC50 [2]: Inactive | IC50 [3]: Inactive | IC50 ([4]; Homo sapiens): 5830 nM

[Ga+3].[O-]c1cccc2cccnc12.[O-]c1cccc2cccnc12.[O-]c1cccc2cccnc12 [tris(8-quinolinolato)gallium(III)]
LDH release (unspecific cytotoxicity, necrosis) (BJAB lymphoma cells [5]): negligible; also recorded: no significant LDH release | Harakiri gene expression, upregulation [6]: 29 fold | caspase-5 gene expression, upregulation [7]: 118 fold | IC50 [8]: < 3500 nM | apoptosis (DNA fragmentation) in resistant cells versus control cells [9]: higher apoptotic amounts in the resistant cells compared to the control cells | IC50 [10]: 213 nM | IC50 [11]: 2900 nM | IC50 [12]: 1470 nM | IC50 (MV4-11 leukemia cells): 1440 nM | apoptosis (DNA fragmentation) in resistant cells versus control cells [13]: higher apoptotic amounts in the resistant cells compared to the control cells | concentration giving complete block of proliferation (BJAB lymphoma cells [14]; 24 hours): ≥ 2 µM | IC50 (BJAB lymphoma cells [14]; 24 hours, read-out: IC50, inhibition of proliferation): < 1000 nM | inhibition of proliferation, maximal (BJAB lymphoma cells [14]; exposure time 24 hours): up to 100% | IC50 ([1]; 96 hours total culture): 1570 nM | IC50 ([2]; read-out: IC50): 890 nM | IC50 ([3]; read-out: IC50): 820 nM | IC50 [4]: 740 nM | processing of procaspase-3 and procaspase-9 [15]: induces processing of procaspase-3 (p32) and procaspase-9 (p47) | AC50 (BJAB lymphoma cells [16]): ~1000 nM | CC50 (BJAB lymphoma cells [16]; read-out: LC50, apoptosis by DNA fragmentation): ~1000 nM
